Experimental data from US12458643B2, “Antidepressant/anxiolytic drug in which PAC1 receptor antagonist is used” (KAGOSHIMA UNIVERSITY, priority 2020, dated 2025).

What was measured:
normal mice [1] = assay: Y maze test in normal mice; format: in vivo, mouse; details: 30 mg/kg i.p., 60 minutes after
Protocol: A vehicle (10% DMSO solution; dissolved in saline; n=11) or PA-915 (30 mg/kg; n=10) was intraperitoneally administered (0.1 mL/10 g) to male C57BL/6J mice (8 to 12 weeks old). After a lapse of 60 minutes after administration, the mice were allowed to explore the Y maze for 5 minutes in a laboratory (illuminance: 20 lx). The data was indicated by mean±standard error.

normal mice [2] = assay: Novel object recognition test in normal mice; format: in vivo, mouse; details: 30 mg/kg i.p., 60 minutes later
Protocol: Male C57BL/6J mice (8 weeks old) were acclimatized to the test box by exploration at 10 min/day for 3 days. On the fourth day, two objects differing in shape were placed in the test box, and the mice were allowed to freely explore the test box for 10 minutes (training trial). 23 hours after the completion of exploration, a vehicle (10% DMSO solution; dissolved in saline; n=10) or PA-915 (30 mg/kg; n=10) was intraperitoneally administered thereto (0.1 mL/10 g). 60 minutes later, one of the two objects was changed to a novel object, and the mice were allowed to explore the test box for 5 minutes (retention trial). Novel and known object exploration times were measured. The results are shown in FIGS. 36B and 36C (B: discrimination index, C: novel object exploration ratio). The data was indicated by mean±standard error.

O=C(NCCc1c[nH]cn1)C1CC(=O)N(c2n[nH]c3c(Cl)cccc23)C1 (centres unmarked) [PA-915, N-[2-(1H-imidazol-4-yl)ethyl]-1-(7-chloro-1H-indazol-3-yl)-5-oxo-3-pyrrolidinecarboxamide]
influence on cognitive function (Y maze test) (normal mice [1]): had no influence on the cognitive function | influence on cognitive function (novel object recognition test) (normal mice [2]): had no influence on the cognitive function
